In patent US9376391B2, “Difluoromethyl-nicotinic-tetrahydronaphthyl carboxamides as fungicides” (BAYER CROPSCIENCE AKTIENGESELLSCHAFT, priority 2012, dated 2016):

Assays:
[1] = test system: Puccinia recondita; assay: In vivo preventive test on Puccinia recondita (brown rust on wheat)
In short: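 Wheat seedlings ("Scipion") sprayed with compound at the 1-leaf stage, inoculated 24 h later with Puccinia recondita spores (100 000 spores per ml). Incubated 24 h at 20° C and 100% RH, then 10 days at 20° C and 70-80% RH. Efficacy (%) versus solvent-treated controls graded 12 days after contamination.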

[2] = test system: Botrytis cinerea; assay: In vivo preventive test on Botrytis cinerea (grey mould), gherkin plants
Description: In Vivo Preventive Test on Botrytis cinerea (Grey Mould)
The active ingredients tested are prepared by homogenization in a mixture of acetone/tween/DMSO and then diluted with water to obtain the desired active material concentration.
Gherkin plants (“Vert petit de Paris” variety), sown in starter cups on a 50/50 peat soil-pozzolana substrate and grown at 24° C., are treated at the Z11 cotyledon stage by spraying with the active ingredient prepared as described above. Plants, used as controls, are treated with the mixture of acetone/tween/DMSO/water not containing the active material.
After 24 hours, the plants are contaminated by spraying the cotyledons with an aqueous suspension of cryopreserved Botrytis cinerea spores (50 000 spores per ml). The spores are suspended in a nutrient solution composed of 10 g/L of PDB, 50 g/L of D-Fructose, 2 g/L of NH4NO3 and 1 g/L of KH2PO4. The contaminated gherkin plants are incubated at 17° C. and at 90% relative humidity.
Grading (% of efficacy) is carried out 4 to 5 days after the contamination, in comparison with the control plants.

[3] = test system: Uromyces appendiculatus; assay: In vivo preventive test on Uromyces appendiculatus (bean rust); settings: 500 ppm, preventive spray, bean plants, grading 11 days after contamination
In short: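 'Saxa' bean plants at the 2-leaf stage were sprayed with compound and inoculated 24 h later with U. appendiculatus spores (150 000 spores per ml). Plants were incubated 24 h at 20 °C and 100% RH, then 10 days at 20 °C and 70–80% RH. Percent efficacy versus solvent-treated controls was graded 11 days post-inoculation.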

[4] = test system: Phakopsora pachyrhizi; assay: Phakopsora test (soybeans)/preventive; assay type: in vivo; settings: 100 ppm of active ingredient, evaluated 7 days after inoculation
Description: Phakopsora Test (Soybeans)/Preventive
(§1) To produce a suitable preparation of active compound, 1 part by weight of active compound is mixed with the stated amounts of solvent and emulsifier, and the concentrate is diluted with water to the desired concentration.
(§2) To test for preventive activity, young plants are sprayed with the preparation of active compound at the stated rate of application. After the spray coating has dried on, the plants are inoculated with an aqueous spore suspension of the causal agent of soybean rust (Phakopsora pachyrhizi) and stay for 24 h without light in an incubation cabinet at approximately 24° C. and a relative atmospheric humidity of 95%.
The plants remain in the incubation cabinet at approximately 24° C. and a relative atmospheric humidity of approximately 80% and a day/night interval of 12 h.
The test is evaluated 7 days after the inoculation. 0% means an efficacy which corresponds to that of the untreated control, while an efficacy of 100% means that no disease is observed.

[5] = test system: Septoria tritici; assay: In vivo preventive test on Septoria tritici (leaf spot on wheat); settings: 500 ppm, preventive spray, wheat plants, grading 24 days after contamination
In short: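 Wheat cv. Scipion sprayed preventively at 1-leaf stage; inoculated 24 h later with Septoria tritici spores (500 000 spores per ml). Incubation 72 h at 18 °C, 100% RH, then 21 days at 90% RH; % efficacy graded 24 days after contamination against solvent-treated controls.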

[6] = test system: Venturia inaequalis; assay: Venturia test (apples)/preventive; assay type: in vivo; settings: 100 ppm of active ingredient, evaluated 10 days after inoculation
Description: Venturia Test (Apples)/Preventive
as §1
as §2, with “conidia” for “spore”, “apple scab (Venturia inaequalis)” for “soybean rust (Phakopsora pachyrhizi)”, “then remain” for “stay”, “1 day” for “24 h without light”, “20°” for “24°”, “100%.” for “95%.”
The plants are then placed in a greenhouse at approximately 21° C. and a relative atmospheric humidity of approximately 90%.
The test is evaluated 10 days after the inoculation. 0% means an efficacy which corresponds to that of the untreated control, while an efficacy of 100% means that no disease is observed.

[7] = log P by HPLC on reversed phase columns (EEC directive 79/831 Annex V.A8); assay type: physicochemical; settings: Table 1, formula (I); HPLC/LC-MS at pH 2.7, 0.1% formic acid in water / acetonitrile, gradient 10% to 95%
[8] = test system: Alternaria brassicae; assay: In vivo preventive test on Alternaria brassicae (leaf spot on radish); settings: dose 500 ppm, spray, graded 6 days after contamination vs control plants
In short: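 Radish cv. Pernod Clair at cotyledon stage (grown 17 °C) sprayed with compound in acetone/tween/DMSO/water, then inoculated 24 h later with A. brassicae spores (50 000 spores per ml). Incubation 20 °C, 100% RH; % efficacy graded 6 days post-inoculation versus solvent-treated controls.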

[9] = dose 100 ppm of active ingredient, comparison with known compounds
[10] = dose 100 ppm, comparison with known compounds, same conditions

- logP^[a] [7]: 3.29^[a]
SMILES: CC1CC(C)(C)c2cccc(NC(=O)c3cccnc3C(F)F)c21 (stereo not drawn) [Example 1]
- protection (in words) [1, 9]: total protection
- Efficacy [1, 10]: 100%
- Eff. % ([1]; dose 500 ppm, wheat, spray, graded 12 days after contamination vs control plants): 100%
- protection (in words) [2, 9]: total protection
- Efficacy [2, 10]: 100%
- Eff. % ([2]; dose 500 ppm, gherkin, spray, graded 4 to 5 days after contamination vs control plants): 100%
- Eff. % [3]: 100%
- Eff. % [4]: 99%
- Eff. % [5]: 100%
- Eff. % [6]: 100%
- Eff. % [8]: 92%
